Assay results published in patent US20120252773A1, “Method and composition for inhibiting cell proliferation and angiogenesis” (priority 2005, published 2012).
Read-outs that look alike come from different tables or passages of the source.

Key:
[1] = system: A549 human non-small cell lung cancer cells; test: Cell growth inhibition, MTT, 7 days, A549; type: cell-based; settings: A549, 7 days, Example 15
Protocol: (§1) To measure the inhibitory activity of (2) on growth of HDMVEC cells (Clonetics, San Diego, Calif.), 2,000 cells were seeded in each well of a 96-well plate in […] of EGM medium (Clonetics) supplemented with 5% fetal bovine serum (Sigma). The plate was incubated at 37° C. in a tissue culture incubator for 24 h, and then various concentrations of (2) dissolved in EGM were added to each well in 5-10 μl aliquots. Four wells were used for each concentration. Medium in each well was renewed with fresh test solution added every other day. After 7 days of culture, the viable cells were measured using reagents from an MTT kit (Promega Corporation, Madison, Wis.), using instructions provided by the supplier. The number of viable cells in treated wells relative to those in control wells gave the percentage of inhibition.
Compound (2) was evaluated in several different human cancer cell lines for its effects on cell growth. […]
To measure the inhibitory activity of test articles on growth of NSCLC cells, 2,000 cells were seeded in each well of a 96-well plate in […] of RPMI-1640 medium supplemented with 2 mM glutamine and 10% fetal bovine serum (growth medium). […] After 7 days of culture, the viable cells were measured using reagents from MTT kit (Promega Corporation, Madison, Wis.), using instructions provided by the supplier. […]

[2] = system: HIF-1α protein in PC-3 prostate cancer cells; test: HIF-1α protein expression by immunoblotting, PC-3 cells; type: cell-based, human; settings: 6 h
Protocol: Hypoxia experiments were performed in either of two ways. To produce a very low ambient oxygen concentration (effectively anoxia), we used a protocol in which cells were incubated in a 5% CO2-air atmosphere at 37° C. overnight and then placed in aluminum gas-exchange chambers maintained at 37° C. (Laderoute K R et al. Mol Cell Biol 22: 2515-2523, (2002); Laderoute K R et al. Mol Cell Biol 24: 4128-4137, (2004)). The chambers containing the cells were then placed in a 37° C. circulating water bath and the original atmosphere was repeatedly exchanged with 5% CO2-95% N2 using a manifold equipped with a vacuum pump and a gas cylinder. Atmospheric oxygen partial pressure (pO2) values of less than or equal to 0.01% (relative to air at pO2 of about 21%) can be achieved inside the chambers using this system. Following various hypoxic exposures, the chambers were opened an anaerobic glove box (Bactron X, Sheldon Manufacturing Inc., Cornelius, Oreg.; attached to a cylinder containing 5% CO2-95% N2) to prepare cell lysates without significant reoxygenation. All manipulations of hypoxic cells were performed in the anaerobic glove box. Atmospheric oxygen levels in both the chambers and the glove box have been measured and calibrated using a polarographic oxygen electrode (Oxygen Sensors, Inc., Norristown, Pa.). Hypoxia experiments involving a pO2 of 1% were performed by equilibrating the glove box with an atmosphere of 1% O2 5% CO2 […] held at 37° C. with a circulating fan. Cells were incubated inside a humidified space in the glove box and the medium on the cells was gently and continually agitated by using a rotary shaker. For these experiments, we used RAW 264.7 immortalized mouse macrophages as normal control cells, PC-3 prostate cancer cells, and MDA-MB-231 breast cancer cells, all available from ATCC.
We used immunoblotting to evaluate the experiments. Nuclear lysates were used to detect HIF-1α protein by immunoblotting (Murphy B J et al. Biochem Biophys Res Commun (In Press): 2005). Briefly, cells were placed on ice in air or on Super Ice® cold packs in the anaerobic glove box and the medium was removed. […] After spinning at 9,000×g for 5 min at 4° C., the protein concentrations of the supernatants were determined by using a bicinchoninic acid assay (Pierce Biotechnology). […] Primary antibody binding was detected and visualized by using the ECL Plus Western Blotting Detection System (Amersham Pharmacia Biotech) according to the supplier's instructions. HIF-1α protein was detected by using an anti-HIF-1α monoclonal antibody (Novus Biologicals, Cat. No. NB100-123; diluted 1:500) and a horseradish peroxidase-conjugated anti-mouse IgG secondary antibody (Santa Cruz Biotechnology, Cat. No. sc-2062; diluted 1:20,000). […]

[3] = system: Human Dermal Microvascular Endothelial Cells (HDMVEC); test: Growth inhibition of HDMVEC cells, MTT, 7 days; type: cell-based; settings: Endothelial cell
Protocol: as §1
The procedures of Example 3 were carried out to evaluate the inhibitory effect of various compounds of the invention on the growth of HDMVEC cells (Clonetics, San Diego, Calif.).

C[C@@H]1Cc2cc(O)ccc2C2CCC3(C)/C(=C/COCCN(C)C)CCC3C21 (stereo partly drawn) [Compound (2), (E)-3-Hydroxy-7α-methyl-21-[(2-dimethylamino)ethoxy]-19-norpregna-1,3,5(10),17(20)-tetraene]
growth of NSCLC cells [1]: inhibited the growth of NSCLC cells in a dose-response manner | inhibitory activity compared with Cisplatin tested in parallel [1]: much more potent than that of Cisplatin | HIF-1α protein expression ([2]; PC-3, anoxic, hypoxic and normoxic conditions, less than or equal to 5 μM): potent inhibitory effect | cytotoxicity toward PC-3 cells ([2]; PC-3, less than or equal to 5 μM): without obvious cytotoxicity | IC50 ([3]; 168 h, 7 days of culture, MTT, read-out: IC50 value, growth of HDMVEC cells): ~80 nM | IC50 ([3]; HDMVEC growth, procedures of Example 3, read-out: Inhibitory Effect (IC50 Value)): 80 nM
